Measured values: patent US8158589B2, “Peptides with the capacity to bind to transforming growth factor β1 (TGF-β1)” (Proyecto Biomedicine Cima, S.L., priority 2003, dated 2012)
Ends that are not written are not given here.

How the values were obtained:
TGF-β1 [1] = target: T1, TGF-β1 (Rattus norvegicus, UniProt P17246); test: Corneal fibrosis and haze after 1 N NaOH damage, topical eye drops, photographs analysed with ImageJ; type: in vivo, Long-Evans rats; conditions: first experiment, Group 1
T1 construct: from tissue; host or cells: cornea of Long-Evans rats
T1 sequence (P17246 279-390 limits assumed): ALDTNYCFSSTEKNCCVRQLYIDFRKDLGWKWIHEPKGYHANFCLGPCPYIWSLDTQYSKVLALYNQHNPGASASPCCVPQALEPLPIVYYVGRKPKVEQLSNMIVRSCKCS
Excerpt: Male Long-Evans rats aged 10 weeks were used, divided into 5 groups: • Group 1: 12 rats, 6 treated with dexamethasone and 6 treated with mitomycin C • Group 2: 12 rats, 6 treated with p17 of the first formulation (see section 6.1.2.b) and 6 treated with p144 of the first formulation (see section 6.1.2.b) • Group 3: 12 rats, 6 treated with p17 of the second formulation (see section 6.1.2.b) and 6 treated with p144 of the second formulation (see section 6.1.2.b) • Group 4: 12 rats, 6 treated with p17 of the third formulation (see section 6.1.2.b) and 6 treated with p144 of the third formulation (see section 6.1.2.b) • Group 5: 12 rats, 6 treated with p17 of the fourth formulation (see section 6.1.2.b) and 6 treated with p144 of the fourth formulation (see section 6.1.2.b) • Group 6: 12 rats, 6 treated with p17 of the fifth formulation (see section 6.1.2.b) and 6 treated with p144 of the fifth formulation (see section 6.1.2.b)
To perform the damage in the cornea, the animals were anesthetized with isoflurane and a 5 mm Whatman paper disc impregnated in 1 N NaOH for 30 seconds was applied to them in the central part of the eye. After the damage, they were washed with abundant physiological saline serum and an antibiotic ointment was applied to them to prevent possible infections in the affected area.
After conducting several in vivo studies with the previously described groups of animals, it could be concluded that the chemical damage occurring after the application of NaOH for 30 seconds caused an excessive lesion for the study which was to be conducted, therefore it was decided to conduct new experiments reducing the time to 15 seconds.
It was randomly established that the left eye of each animal would act as a control and that the right eye would be the treated eye, such that the same animals acts as a control in addition to being treated. It must be pointed out that all the animals received antibiotic treatment in both eyes daily only during the first week of the study for the purposes of avoiding microbial keratitis.
Starting from 0.15% sodium hyaluronate (Hyabak 10 mL, Thea) without preservatives: • p144: 20 mg were dissolved in 5 ml of eye drops, 40 μl of saturated concentrated NaOH were incorporated, stirring and adding in portions of 5 μl. It was sonicated until solubilization. To adjust the pH, 500 μl of 1M Hepes were added, such that the pH changed from 10.5 to 7 • p144 control: 40 μl of saturated NaOH and 500 μl of 1 M HEPES (final concentration of HEPES 50 mM) • p17: 20 mg were dissolved in 5 ml of the eye drops, it was sonicated until complete solubilization and it was incorporated to the vial with a 10 ml syringe and a blue needle to perforate the filter of the contained (final concentration 2 mg/ml) • p17 control: non-manipulated eye drops • Note: The formulations were maintained at 4° C. throughout the study.
The administration of the treatment was initiated twenty-four hours after the damage. After that time a follow-up of the damage was performed, which consisted of taking photographs at days 0, 7, 14, 21, 28 and 35. To take the photographs the animals were anesthetized with isoflurane. Photographs were taken of both the control eye (left) and of the treated eye (right) with and without fluorescein. The photographs with fluorescein allowed to observe the evolution of the epithelial closure of the generated lesion, whereas the photographs without fluorescein show the evolution of the haze of the lesioned area. […]

TGF-β1 [2] = target: T2, TGF-β1 (Homo sapiens, UniProt P01137); test: Biopanning of phage-displayed 15-aa peptide library on biotinylated TGF-β1, number of colonies per sequence; type: binding; design: purchased Roche; host or cells: added to Mv-1-Lu (CCL-64) mink lung epithelial cells; conditions: clones carrying the sequence among 108 colonies after the last biopanning cycle; approximate indication of affinity for TGF-β1
T2 sequence (P01137 279-390 limits assumed, species assumed): as the sequence (P17246 279-390 limits assumed) above, with S75A counted along it
Excerpt: These libraries comprise a plurality of filamentous bacteriophages (M13), each one containing a peptide genetically fused to a protein of the virus envelope—in this case bound to the N-terminal end of envelope protein pIII (FIG. 1). […] In the phage libraries, the sequence encoding the peptide originates from a sequence degenerated in each one of the 15 positions with the 20 natural amino acids, thus allowing the presentation of 1.1×10^12 possible sequences of 15 amino acids in different phages. The physical ratio, 1:1, between the peptide sequence and the DNA encoding it within the bacteriophage allows the selection (from a broad range of variants) of those sequences that specifically bind to TGF-β1. This process is carried out via an in vitro selection protocol known as “biopanning”.
This technique involves incubating a set of phages representative (to practical effects) of all the 15-aa variants, in a plate blocked with streptavidin (10 μg/ml in 0.1 M NaHCO3, during 2 h at room temperature) to which biotinylated TGF-β1 is added. […] TGF-β1 contacts the peptides carried by the phages at a concentration of […]. After about 12 hours incubation, unbound phages are eliminated by 5 washings with PBS/Tween (phosphate buffered saline/polyoxyalkylene derivatives of sorbitan fatty acid esters). […] The eluted phages are then amplified by infection in a bacterial strain (E. coli). The process is repeated three cycles so that an enrichment in the content of phages which specifically bind, and with high affinity, to TGF-β1 is achieved (FIG. 3). […] Thus, the phages selected in each cycle show more and more affinity for TGF-β1. At the end of the process, phages which have been selected for their affinity for TGF-β1, are sequenced by using primers, after isolation by tetracycline resistance of the genetically modified phages after infecting E. coli cells. […] The number of times which a sequence is repeated, corresponding to a 15 amino acids peptide carried by each clone, from the total of sequenced colonies is an indication of the degree of relative affinity of said 15 amino acids sequence for TGF-β1.
The selection of clones, obtained from the “biopanning”, was carried out by selection of the bacterial colonies infected with the phages in the presence of a bacterial antibiotic; the bacteria resistance is acquired by a tetracycline resistance gene encoded by the phage genome. Thus, only those colonies infected with bacteriophages are able to grow. This means that each colony contains the genome of only one phage coding for only one peptide presented in its surface.
A total number of 108 colonies of phage-infected bacteria were obtained from the last selection cycle of “biopanning”. The sequence of the regions coding for the peptides present in the pIII protein was carried out using primers identified with SEQ ID NO: 23. This table also reflects the number of colonies (clones) carrying said sequences.
The number of clones (colonies) of each sequence gives an approximate indication of the degree of affinity of the peptide for TGF-β1, that is, the more colonies the more binding affinity.

TGF-β1 [3] = target: T3, TGF-β1 (Mus musculus, UniProt P04202); test: Model of acute liver damage induced by CCl4, type I collagen mRNA by real time PCR; type: in vivo, mice; conditions: for % Inhibition of type I collagen mRNA induction (in vivo TGF-β1 biological activity): Balb/C mice, oral CCl4, 50 μg of peptide every 24 h, sacrifice after 72 hours; for inhibition of the biological activity of TGF-β1 in vivo (in words): acute liver damage, type I collagen mRNA
T3 construct: from tissue; host or cells: liver of Balb/C mice (CCl4 model); lung of C57BL/6 mice (bleomycin model)
T3 sequence (P04202 279-390 limits assumed): as the sequence (P17246 279-390 limits assumed) above
Method: Acute liver damage generates a cascade of effects and physiological responses, including elevations in the concentrations of TGF-β1. This elevation is responsible for the expression of the type I collagen gene, among others. In this model of acute liver damage, female Balb/C mice weighing 25 to 30 g, were orally administered a dose of 2 μl of CCl4 (per gram of body weight) dissolved in an equivalent volume of corn oil (volumetric ratio of 1:1). The control group received an equivalent volume of corn oil only, and the treated groups received (following the single oral administration of CCl4 in corn oil) 50 μg of peptide in 500 μl of 1% physiological saline solution in DMSO (dimethyl sulfoxide) every 24 h. After 72 hours all animals were sacrificed, and the liver samples were processed. To evaluate mRNA expression, liver tissue was frozen in liquid nitrogen and stored at −80° C. until further use. Other liver tissue samples were stored in OCT® or Tissue-Tek® (Sakura Finetek B.V.) and processed in the same way as the samples used for mRNA studies. Other liver samples were fixed in 10% buffered formalin solution, embedded in paraffin and processed for their histological evaluation. The amount of mRNA encoding type I collagen was quantified in all groups using a quantitative polymerase chain reaction (PCR) technique. […] The capacity of the testing peptides to block the acute damage, as assessed by measuring the levels of induced type I collagen mRNA was quantified by real time PCR. […] The peptides tested were obtained by conventional solid peptide synthesis procedures (Merrifield R B. J Am Chem Soc 1963; 85:2149-2154; Atherton E et al. J Chem Soc Perkin Trans 1981; 1:538-546).

TGF-β1 [4] = target: T2, TGF-β1; type: cell-based; design: purchased Roche; host or cells: added to Mv-1-Lu (CCL-64) mink lung epithelial cells; conditions: Mv-1-Lu proliferation
Excerpt: The cell line Mv-1-Lu (CCL-64, […], Virginia, USA) derives from mink pulmonary epithelium, grows as a monolayer, and responds to the presence of TGF-β1 by decreasing its proliferation (FIG. 5). Thus, the peptide-mediated inhibition of this cytokine is able to restore cell growth and reflects the capacity of the different peptides to inhibit the biological activity of TGF-β1 in vitro. The peptides tested were obtained by peptide synthesis, in accordance to conventional procedures (Merrifield R B. J Am Chem Soc 1963; 85:2149-2154; Atherton E et al. J Chem Soc Perkin Trans 1981; 1:538-546).
The Mv-1-Lu cells are cultured to confluence in complete medium [RPMI-1640 supplemented with L-glutamine, sodium pyruvate, antibiotics and 10% fetal bovine serum (FBS)] at 37° C. and in 5% CO2 in 162 cm^2 bottles (Costar Corporation, CA, USA). Following trypsinization, the cells are cultured in 200 μl of complete medium in 96-well plates at an initial density of 5,000 cells/well at 37° C. and in 5% CO2 during 6 hours to ensure adhesion. Then, different concentrations of the peptides to be tested are added, starting from 200 μg/ml, and following 200 pg/ml of TGF-β1 (Roche) are added. After 12 hours of incubation 1 μCi of methyl-3H-thymidine (Amersham Life Science, Buckinghamshire, United Kingdom) is added per well in 25 μl of clean medium (RPMI-1640). The plate is incubated for 12 more hours under the same conditions. Finally, the cells are harvested (Filtermate 196 Harvester, Packard), transferring the tritiated thymidine, incorporated in the course of DNA synthesis, to plates (UniFilter-96 GF/C®, Perkin Elmer). Following the addition of scintillation fluid, the radioactivity was quantified using a scintillation counter (Top Count, Microplate Scintillation Counter, Packard). As positive and negative control, use was made of the incorporation of tritiated thymidine in the absence and presence of TGF-β1, respectively. The inhibition of TGF-β1 activity in this test was calculated based on the following formula: […]
The negative control represents the incorporation of tritiated thymidine in the presence of TGF-β1 but in the absence of peptide, whereas the positive control refers to the incorporation of tritiated thymidine in the absence of TGF-β1 and peptide. Thus, according to the capacity of the peptides to revert the cytokine repressor effect on Mv-1-Lu cell line proliferation, percentage of TGF-β1 biological activity inhibition by the peptides can be measured (Table 2).
Comparisons have been made of the activity of truncated peptides (derived from peptide sequence SEQ ID NO: 17) versus the complete sequence, in terms of the capacity to revert the suppressor effect of TGF-β1 upon proliferation of the Mv-1-Lu cell line. To this effect, and to determine the minimum sequence of peptide SEQ ID NO: 17 capable of inhibiting the biological activity of TGF-β1 in vitro, truncated versions of this peptide were synthesized, with truncation at the N-terminal end, C-terminal end or in both ends of the molecule. The peptides tested were obtained by peptide synthesis following conventional procedures (Merrifield R B. J Am Chem Soc 1963; 85:2149-2154; Atherton E et al. J Chem Soc Perkin Trans 1981; 1:538-546). Following the same methodology described in Example 2, the activity of truncated peptides versus the complete sequence of the peptide SEQ ID NO: 17 was quantified, in terms of a proliferation assay of the Mv-1-Lu cell line.

| Compound | clinical efficacy in the treatment of corneal fibrosis (TGF-β1 [1]) | No. colonies (TGF-β1 [2]) | % Inhibition of type I collagen mRNA induction (in vivo TGF-β1 biological activity) (TGF-β1 [3]) | inhibition of the biological activity of TGF-β1 in vivo (in words) (TGF-β1 [3]) | inhibition of the biological activity of TGF-β1 in vitro (in words) (TGF-β1 [4]) |
| --- | --- | --- | --- | --- | --- |
| CO[C@@]12[C@H](COC(N)=O)C3=C(C(=O)C(C)=C(N)C3=O)N1C[C@@H]1N[C@@H]12 [mitomycin C] | correspond to those described in the scientific literature | – | – | – | – |
| RFFTRFPWHYHASRL [SEQ ID NO: 3] | – | 41 | 2.09% | much less active | only inhibitory activity |
| RKWFLQHRRMPVSVL [SEQ ID NO: 13] | – | 6 | 32.70% | inhibitory capacity | inhibitory capacity |
| RLAHSHRHRSHVALT [SEQ ID NO: 4] | – | 18 | 51.30 ± 15.3% | inhibitory capacity | inhibitory capacity |
| SGRRHLHRHHIFSLP [SEQ ID NO: 14] | – | 2 | 49.84 ± 24% | inhibitory capacity | inhibitory capacity |
| WHKYFLRRPLSVRTR [SEQ ID NO: 11] | – | 4 | 39.34 ± 21.9% | inhibitory capacity | inhibitory capacity |
